{
  "source": "paper PMC11091978",
  "about": "(ACS Pharmacology & Translational Science, 2024)",
  "target": "NLRP3 (Homo sapiens, UniProt Q96P20)",
  "sequence (Q96P20 whole entry)": "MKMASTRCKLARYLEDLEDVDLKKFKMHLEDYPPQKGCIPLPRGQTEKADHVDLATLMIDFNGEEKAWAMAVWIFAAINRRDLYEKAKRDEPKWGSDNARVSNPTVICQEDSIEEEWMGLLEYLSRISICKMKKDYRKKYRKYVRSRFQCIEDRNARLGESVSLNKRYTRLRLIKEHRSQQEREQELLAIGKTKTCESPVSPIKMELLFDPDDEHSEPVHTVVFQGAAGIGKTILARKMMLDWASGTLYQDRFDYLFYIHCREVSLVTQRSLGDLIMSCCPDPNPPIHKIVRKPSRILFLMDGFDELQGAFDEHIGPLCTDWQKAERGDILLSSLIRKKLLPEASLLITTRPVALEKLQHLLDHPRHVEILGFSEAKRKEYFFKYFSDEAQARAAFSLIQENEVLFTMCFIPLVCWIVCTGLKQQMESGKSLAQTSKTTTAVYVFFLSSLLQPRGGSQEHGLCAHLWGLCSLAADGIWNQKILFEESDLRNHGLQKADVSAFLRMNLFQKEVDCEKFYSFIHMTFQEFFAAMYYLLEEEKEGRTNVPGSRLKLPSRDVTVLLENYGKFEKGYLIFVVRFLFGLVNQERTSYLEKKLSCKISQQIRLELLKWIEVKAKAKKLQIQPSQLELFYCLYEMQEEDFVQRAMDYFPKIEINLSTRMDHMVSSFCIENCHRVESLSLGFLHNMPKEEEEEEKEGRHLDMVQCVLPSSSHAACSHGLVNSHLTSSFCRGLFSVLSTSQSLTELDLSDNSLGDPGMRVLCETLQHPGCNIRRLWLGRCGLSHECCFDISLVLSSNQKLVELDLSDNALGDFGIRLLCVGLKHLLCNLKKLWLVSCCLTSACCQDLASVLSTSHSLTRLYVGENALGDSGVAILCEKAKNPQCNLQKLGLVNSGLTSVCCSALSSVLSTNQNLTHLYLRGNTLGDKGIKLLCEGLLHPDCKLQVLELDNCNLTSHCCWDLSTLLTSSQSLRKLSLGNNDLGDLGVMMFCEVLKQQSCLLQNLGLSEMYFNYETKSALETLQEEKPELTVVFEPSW",
  "format": "cell-based",
  "data": [
    {"molecule": "Cn1cc(N(C[C@@H]2CCCO2)S(=O)(=O)NC(=O)Nc2c3c(cc4c2CCC4)CCC3)cn1", "note": "[NT-0249, [(1,2,3,5,6,7-hexahydro-s-indacen-4-yl)carbamoyl][(1-methyl-1H-pyrazol-4-yl)({[(2S)-oxolan-2-yl]methyl})sulfamoyl]azanide]", "values": [
      {"measurement": "IC50", "value": 11, "unit": "nM"}
    ]}
  ]
}
